Test results published in patent publication US20090130229A1, “Antitumor uses of compound” (Cell Therapeutics, Inc., priority 2002, published 2009).

Tests used:
[1] = biological target: T1, Ret/MEN2A(C634R) (Homo sapiens, UniProt P07949, C634R); experiment: Ret/MEN2A(C634R) autophosphorylation and expression in NIH3T3 transfectants (Western blotting); assay type: cell-based; conditions: 10 μM
T1 construct: expressed in transfected cells; host or cells: NIH3T3 (mouse fibroblasts)
Experimental: FIG. 1. Effects of Cpd 1 on NIH3T3^MEN2A(C634R) transfectants expressing exogenous RET/MEN2A(C634R). […] Cells were exposed to 6 μM Cpd1 for 24 h and then photographed under a phase-contrast microscope (original magnification ×100). B) Antiproliferative effect. NIH3T3^MEN2A(C634R) cells and the parental NIH3T3 cells were treated with increasing concentrations of the drug for 72 h and then counted with a Coulter Counter. […] C) Inhibition of Ret/MEN2A(C634R) autophosphorylation and expression. Cells were treated with solvent (−) or 10 μM Cpd1 (+), for the indicated times. Whole cell-lysates were prepared and subjected to SDS-PAGE and Western blotting with anti-pTyr antibody. After stripping, the filter was reblotted with anti-Ret antibody. Arrows indicate the partial and fully glycosilated forms of the Ret/MEN2A receptor.
The following human medullary thyroid carcinoma (MTC) cell lines were used in this study. The TT cell line derived from a MEN2A-associated MTC characterized by expression of the RET oncogene carrying the mutation C634W. The MZ-CRC-1 cell line derived from MEN2B-associated MTC characterized by expression of the RET oncogene carrying the mutation M918T. TT cells were cultivated in Ham's F12 medium (BioWhittaker, Verviers, Belgium) supplemented with 15% fetal calf serum (FCS) (Life Technologies, Inc., Gaithersburg, Md.) whereas MZ-CRC-1 cells were grown in Dulbecco's modified Eagle's medium (DMEM) (BioWhittaker) supplemented with 10% FCS. […]
(§1) For whole-cell extract preparation, cells were lysed in sodium dodecyl sulfate (SDS) sample buffer (62.5 mM Tris-HCl (pH 6.8), 2% SDS) with 1 mM PMSF, 10 μg/ml pepstatin, 12.5 μg/ml leupeptin, 100 KIU aprotinin, 1 mM sodium orthovanadate, 1 mM sodium molybdate. Protein concentration was determined in appropriately diluted aliquots by the bicinchionic acid (BCA) method (Pierce, Rockford, Ill.), then samples were adjusted to a final concentration of 10% glycerol, 5% β-mercaptoethanol, 0.001% bromophenol blue. […]

[2] = biological target: T2, Ret/MEN2A(C634W) (Homo sapiens, UniProt P07949, C634W); experiment: Ret autophosphorylation and expression in TT cells (Western blotting); assay type: cell-based; conditions: 24 h
T2 construct: endogenous in cells; host or cells: TT (human medullary thyroid carcinoma)
T2 sequence (P07949 29-1114 C634W): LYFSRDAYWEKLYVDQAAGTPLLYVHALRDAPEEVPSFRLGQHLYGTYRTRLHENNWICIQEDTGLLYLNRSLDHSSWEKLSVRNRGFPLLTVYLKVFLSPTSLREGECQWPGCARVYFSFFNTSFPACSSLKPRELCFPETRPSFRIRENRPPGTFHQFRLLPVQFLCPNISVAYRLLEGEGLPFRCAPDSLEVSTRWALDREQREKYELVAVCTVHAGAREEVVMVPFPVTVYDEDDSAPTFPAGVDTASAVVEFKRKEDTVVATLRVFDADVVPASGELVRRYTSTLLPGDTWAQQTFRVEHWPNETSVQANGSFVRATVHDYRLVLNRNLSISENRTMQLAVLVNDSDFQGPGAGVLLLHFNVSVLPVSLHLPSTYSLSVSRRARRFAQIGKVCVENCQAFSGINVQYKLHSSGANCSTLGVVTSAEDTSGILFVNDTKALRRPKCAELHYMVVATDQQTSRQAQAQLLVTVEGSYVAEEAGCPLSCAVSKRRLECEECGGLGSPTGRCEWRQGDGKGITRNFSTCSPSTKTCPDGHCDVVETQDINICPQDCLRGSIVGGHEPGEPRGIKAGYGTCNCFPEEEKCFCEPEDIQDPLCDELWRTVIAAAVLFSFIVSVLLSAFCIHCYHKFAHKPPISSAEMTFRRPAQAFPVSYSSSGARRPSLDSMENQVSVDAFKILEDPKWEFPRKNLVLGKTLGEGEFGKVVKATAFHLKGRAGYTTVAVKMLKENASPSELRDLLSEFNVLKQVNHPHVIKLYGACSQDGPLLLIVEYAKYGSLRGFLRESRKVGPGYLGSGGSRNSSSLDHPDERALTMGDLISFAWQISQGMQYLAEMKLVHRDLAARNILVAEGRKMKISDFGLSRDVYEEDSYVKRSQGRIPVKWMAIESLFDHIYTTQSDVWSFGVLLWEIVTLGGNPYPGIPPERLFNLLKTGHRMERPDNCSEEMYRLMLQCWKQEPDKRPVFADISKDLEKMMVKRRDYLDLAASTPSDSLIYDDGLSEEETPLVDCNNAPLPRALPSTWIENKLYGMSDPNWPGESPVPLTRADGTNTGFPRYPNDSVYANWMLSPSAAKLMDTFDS
Experimental: FIG. 2. Effects of Cpd1 on human MTC cell lines harboring MEN2-associated RET mutants. A) Inhibition of Ret autophosphorylation. TT and MZ-CRC-1 cells, expressing respectively RET/MEN2A(C634W) and RET/MEN2B(M918T), were treated with the indicated concentrations of Cpd1, for 24 h. Control cells (C) received the solvent. Whole cell extracts were processed for Western blotting and probed with anti-pTyr and anti-Ret antibodies. […] B) Antiproliferative effect. TT and MZ-CRC-1 cells were treated with increasing concentrations of Cpd 1 for 7 days and then counted with a Coulter Counter.
(§2) The following human medullary thyroid carcinoma (MTC) cell lines were used in this study. The TT cell line derived from a MEN2A-associated MTC characterized by expression of the RET oncogene carrying the mutation C634W. […]
as §1

[3] = biological target: T3, Kit (Δ559) (Homo sapiens, UniProt P10721, DEL559-559); experiment: Kit (Δ559) autophosphorylation and expression in NIH3T3 transfectants; assay type: cell-based; conditions: 72 h
T3 construct: expressed in transfected cells; host or cells: NIH3T3 (mouse fibroblasts)
T3 sequence (P10721 with tags, fused parts or gaps DEL559-559): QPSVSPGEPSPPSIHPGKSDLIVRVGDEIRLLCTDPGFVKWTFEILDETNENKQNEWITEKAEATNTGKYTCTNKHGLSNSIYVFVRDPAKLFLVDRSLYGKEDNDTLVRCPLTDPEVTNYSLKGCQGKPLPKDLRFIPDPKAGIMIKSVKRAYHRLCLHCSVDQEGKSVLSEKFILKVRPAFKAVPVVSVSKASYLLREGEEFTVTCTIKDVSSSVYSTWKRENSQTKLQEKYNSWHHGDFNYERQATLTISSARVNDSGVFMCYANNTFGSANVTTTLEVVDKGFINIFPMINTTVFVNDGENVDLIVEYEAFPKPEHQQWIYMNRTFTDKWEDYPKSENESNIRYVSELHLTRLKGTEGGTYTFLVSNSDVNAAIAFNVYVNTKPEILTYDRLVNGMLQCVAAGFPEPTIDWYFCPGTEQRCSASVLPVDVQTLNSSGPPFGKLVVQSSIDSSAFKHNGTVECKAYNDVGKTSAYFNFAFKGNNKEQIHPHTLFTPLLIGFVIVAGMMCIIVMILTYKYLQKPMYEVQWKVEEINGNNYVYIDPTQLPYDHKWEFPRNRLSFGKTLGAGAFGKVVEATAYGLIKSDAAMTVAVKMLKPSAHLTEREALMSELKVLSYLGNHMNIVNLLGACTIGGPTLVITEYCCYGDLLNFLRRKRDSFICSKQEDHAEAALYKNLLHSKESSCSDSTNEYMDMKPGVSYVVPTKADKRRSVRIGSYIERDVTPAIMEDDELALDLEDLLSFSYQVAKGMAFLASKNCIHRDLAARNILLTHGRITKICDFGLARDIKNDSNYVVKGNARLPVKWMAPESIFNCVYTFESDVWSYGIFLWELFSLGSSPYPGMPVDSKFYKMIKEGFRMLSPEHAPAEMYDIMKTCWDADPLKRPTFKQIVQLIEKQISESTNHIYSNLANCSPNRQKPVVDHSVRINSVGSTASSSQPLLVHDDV
Experimental: FIG. 7. Effects of Cpd1 on cell lines expressing constitutively activated forms of Kit. […] Cells were treated with 20 μM Cpd1 and photographed 24 h later under a phase-contrast microscope (original magnification X 100). B): Inhibition of Kit (Δ559) autophosphorylation and expression in NIH3T3 transfectants. Cells were treated with Cpd 1 at the indicated concentrations, for 72 h. Cell lysates were immunoprecipitated with anti-Kit antibody and subjected to Western blotting with anti-p-Tyr or anti-Kit antibodies. C): Inhibition of expression and autocrine loop-activated autophosphorylation of c-Kit in the SCLC cell line N592. Cells were treated with Cpd 1 at the indicated concentrations, for 24 h. Whole cell lysates were subjected to Western blotting with anti-Kit antibody or with an antibody specifically recognizing the tyrosine phosphorylated/activated Kit (p-Kit).
as §2, with “C634W. The MZ-CRC-1 cell line derived from MEN2B-associated MTC characterized by expression of the RET oncogene carrying the mutation M918T.” for “C634W.”
For immunoprecipitation experiments, cells were treated with Cpd1 or solvent for the indicated times. […] Protein concentration was determined by the BCA reagent (Pierce). […]

[4] = system: NIH3T3 cells transformed with the RET/PTC1 oncogene; conditions: cited from earlier work

T1 sequence (P07949 29-1072 isoform P07949-2 C634R limits assumed): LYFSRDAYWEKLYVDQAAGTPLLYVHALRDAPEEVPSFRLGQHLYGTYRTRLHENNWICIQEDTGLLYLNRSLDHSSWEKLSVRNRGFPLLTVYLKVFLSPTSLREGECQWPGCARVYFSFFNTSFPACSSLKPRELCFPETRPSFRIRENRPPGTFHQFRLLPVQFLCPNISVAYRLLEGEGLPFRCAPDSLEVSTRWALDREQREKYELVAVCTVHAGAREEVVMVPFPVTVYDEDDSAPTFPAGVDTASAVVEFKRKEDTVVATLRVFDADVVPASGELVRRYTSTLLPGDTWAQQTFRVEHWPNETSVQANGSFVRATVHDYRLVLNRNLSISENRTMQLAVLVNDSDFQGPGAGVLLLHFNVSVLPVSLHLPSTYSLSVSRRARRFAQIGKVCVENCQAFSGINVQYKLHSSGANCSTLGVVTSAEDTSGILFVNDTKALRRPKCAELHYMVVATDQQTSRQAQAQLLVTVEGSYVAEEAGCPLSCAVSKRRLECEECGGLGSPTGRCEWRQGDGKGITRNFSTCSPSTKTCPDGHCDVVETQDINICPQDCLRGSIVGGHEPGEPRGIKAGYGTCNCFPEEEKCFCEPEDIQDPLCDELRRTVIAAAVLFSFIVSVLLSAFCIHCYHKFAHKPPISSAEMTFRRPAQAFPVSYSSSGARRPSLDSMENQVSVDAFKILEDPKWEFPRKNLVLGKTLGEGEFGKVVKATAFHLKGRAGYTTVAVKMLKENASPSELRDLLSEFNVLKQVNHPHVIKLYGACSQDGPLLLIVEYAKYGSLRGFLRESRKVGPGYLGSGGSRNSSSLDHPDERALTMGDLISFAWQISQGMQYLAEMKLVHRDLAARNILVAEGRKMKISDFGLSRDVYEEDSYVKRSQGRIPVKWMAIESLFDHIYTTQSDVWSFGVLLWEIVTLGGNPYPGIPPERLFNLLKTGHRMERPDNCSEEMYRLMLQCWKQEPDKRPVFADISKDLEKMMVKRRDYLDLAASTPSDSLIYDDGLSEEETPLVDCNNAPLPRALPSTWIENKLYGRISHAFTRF

## COc1cc2c(cc1OC)/C(=C\c1ccc(O)cc1)C(=O)N2 [Cpd 1, (E)-1,3-dihydro-5,6-dimethoxy-3-[(4-hydroxyphenyl)methylene]-2H-indol-2-one]
[1]; 2 h of exposure
  Ret/MEN2A(C634R) tyrosine phosphorylation: partially dephosphorylated
[1]; longer times than 2 h
  Ret/MEN2A(C634R) receptor expression: reduced expression
  Ret/MEN2A(C634R) tyrosine phosphorylation: complete tyrosine dephosphorylation
[2]
  Tyrosine phosphorylation of Ret receptor: dose-dependent inhibition
[2]; highest concentrations
  Ret receptor expression: reduced expression
[3]
  Kit (Δ559) expression: dose-dependent drug-induced inhibition
  Kit (Δ559) tyrosine phosphorylation: dose-dependent drug-induced inhibition
[4]
  Reverting the morphologic phenotype: particularly effective
